Test results published in PubChem BioAssay AID2060603 (Molecular Pharmacology Branch, DTP, NCI, 2025).

System: 422866-222-R5-J1-PDC spheroid viability
Assay: Anticancer human tumor 422866-222-R5-J1-PDC patient-derived pancreatic adenocarcinoma cell line growth inhibition [CLK]
Details: spheroids with HUVEC and MSC; for IC50: curve of first compound; for viability, T/C: stronger effect = lower value
How it was run: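 Multi-cell-type spheroids combined patient-derived tumor cells with HUVEC endothelial cells and human mesenchymal stem cells. Paired agents were dosed in half-log steps down from about clinical Cmax, or from 10 microM where Cmax was unknown.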
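Also: spheroids exposed to agents for seven days before readout.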

Question: `C=CC(=O)Nc1cc(Nc2nccc(-c3cn(C)c4ccccc34)n2)c(OC)cc1N(C)CCN(C)C` + CNC(=O)c1ccc(Nc2nc(OC3CCCC3)c3c(-c4ccc5nc(C)oc5c4)c[nH]c3n2)c(OC)c1 was tested. Which IC50 (second compound 0.0316 µM) did it give?
Answer: > 300 nM

Question: And the IC50 (second compound 0.1 µM)?
Answer: > 300 nM

Question: And the IC50 (second compound 0.316 µM)?
Answer: > 300 nM

Question: And the IC50 (second compound 1 µM)?
Answer: > 300 nM

Question: And the IC50 (second compound 3.16 µM)?
Answer: > 300 nM

Question: And the IC50 (second compound 10 µM)?
Answer: > 300 nM

Question: What about the viability, T/C (second compound 0.0316 µM, first compound 0.000949 µM) of the same molecule?
Answer: 98.9%

Question: What about the viability, T/C (second compound 0.0316 µM, first compound 0.003 µM) of the same molecule?
Answer: 98.2%

Question: What about the viability, T/C (second compound 0.0316 µM, first compound 0.00949 µM) of the same molecule?
Answer: 85.4%

Question: What about the viability, T/C (second compound 0.0316 µM, first compound 0.03 µM) of the same molecule?
Answer: 79.2%

Question: What about the viability, T/C (second compound 0.0316 µM, first compound 0.0949 µM) of the same molecule?
Answer: 69.7%

Question: What about the viability, T/C (second compound 0.0316 µM, first compound 0.3 µM) of the same molecule?
Answer: 77.1%

Question: What about the viability, T/C (second compound 0.1 µM, first compound 0.000949 µM) of the same molecule?
Answer: 103%

Question: What about the viability, T/C (second compound 0.1 µM, first compound 0.003 µM) of the same molecule?
Answer: 82.9%

Question: What about the viability, T/C (second compound 0.1 µM, first compound 0.00949 µM) of the same molecule?
Answer: 74.5%

Question: And the viability, T/C (second compound 0.1 µM, first compound 0.03 µM)?
Answer: 71.8%

Question: And the viability, T/C (second compound 0.1 µM, first compound 0.0949 µM)?
Answer: 70.7%

Question: And the viability, T/C (second compound 0.1 µM, first compound 0.3 µM)?
Answer: 57.1%

Question: And the viability, T/C (second compound 0.316 µM, first compound 0.000949 µM)?
Answer: 66.3%

Question: And the viability, T/C (second compound 0.316 µM, first compound 0.003 µM)?
Answer: 73.5%

Question: What about the viability, T/C (second compound 0.316 µM, first compound 0.00949 µM) of the same molecule?
Answer: 68%

Question: What about the viability, T/C (second compound 0.316 µM, first compound 0.03 µM) of the same molecule?
Answer: 58.7%

Question: What about the viability, T/C (second compound 0.316 µM, first compound 0.0949 µM) of the same molecule?
Answer: 59.2%

Question: And the viability, T/C (second compound 0.316 µM, first compound 0.3 µM)?
Answer: 60.7%

Question: What about the viability, T/C (second compound 1 µM, first compound 0.000949 µM) of the same molecule?
Answer: 60.8%

Question: And the viability, T/C (second compound 1 µM, first compound 0.003 µM)?
Answer: 65.8%

Question: What about the viability, T/C (second compound 1 µM, first compound 0.00949 µM) of the same molecule?
Answer: 60.9%

Question: And the viability, T/C (second compound 1 µM, first compound 0.03 µM)?
Answer: 65.5%

Question: What about the viability, T/C (second compound 1 µM, first compound 0.0949 µM) of the same molecule?
Answer: 59.3%

Question: And the viability, T/C (second compound 1 µM, first compound 0.3 µM)?
Answer: 54.8%

Question: What about the viability, T/C (second compound 3.16 µM, first compound 0.000949 µM) of the same molecule?
Answer: 52.8%

Question: What about the viability, T/C (second compound 3.16 µM, first compound 0.003 µM) of the same molecule?
Answer: 61.6%

Question: And the viability, T/C (second compound 3.16 µM, first compound 0.00949 µM)?
Answer: 60.4%

Question: And the viability, T/C (second compound 3.16 µM, first compound 0.03 µM)?
Answer: 56.4%

Question: What about the viability, T/C (second compound 3.16 µM, first compound 0.0949 µM) of the same molecule?
Answer: 62.7%

Question: What about the viability, T/C (second compound 3.16 µM, first compound 0.3 µM) of the same molecule?
Answer: 54.9%

Question: And the viability, T/C (second compound 10 µM, first compound 0.000949 µM)?
Answer: 69.6%

Question: And the viability, T/C (second compound 10 µM, first compound 0.003 µM)?
Answer: 68.8%

Question: And the viability, T/C (second compound 10 µM, first compound 0.00949 µM)?
Answer: 63.5%

Question: What about the viability, T/C (second compound 10 µM, first compound 0.03 µM) of the same molecule?
Answer: 62.4%

Question: What about the viability, T/C (second compound 10 µM, first compound 0.0949 µM) of the same molecule?
Answer: 55.6%

Question: And the viability, T/C (second compound 10 µM, first compound 0.3 µM)?
Answer: 51.7%

Question: Which IC50 (second compound 0.0316 µM) does the source give for `Cn1ncnc1[C@H]1c2n[nH]c(=O)c3cc(F)cc(c23)N[C@@H]1c1ccc(F)cc1` + CN1CCN(c2cc(C(=O)Nc3cc4cc(-c5cnn(C)c5)ccc4cn3)ccn2)CC1 here?
Answer: > 100 nM

Question: What about the IC50 (second compound 0.1 µM) of the same molecule?
Answer: > 100 nM

Question: What about the IC50 (second compound 0.316 µM) of the same molecule?
Answer: > 100 nM

Question: And the IC50 (second compound 1 µM)?
Answer: < 0.316 nM

Question: What about the IC50 (second compound 3.16 µM) of the same molecule?
Answer: < 0.316 nM

Question: What about the IC50 (second compound 10 µM) of the same molecule?
Answer: < 0.316 nM

Question: And the viability, T/C (second compound 0.0316 µM, first compound 0.000316 µM)?
Answer: 92.9%

Question: What about the viability, T/C (second compound 0.0316 µM, first compound 0.001 µM) of the same molecule?
Answer: 112%

Question: What about the viability, T/C (second compound 0.0316 µM, first compound 0.00316 µM) of the same molecule?
Answer: 106%

Question: What about the viability, T/C (second compound 0.0316 µM, first compound 0.01 µM) of the same molecule?
Answer: 102%

Question: What about the viability, T/C (second compound 0.0316 µM, first compound 0.0316 µM) of the same molecule?
Answer: 96%

Question: What about the viability, T/C (second compound 0.0316 µM, first compound 0.1 µM) of the same molecule?
Answer: 87.3%

Question: What about the viability, T/C (second compound 0.1 µM, first compound 0.000316 µM) of the same molecule?
Answer: 126%

Question: What about the viability, T/C (second compound 0.1 µM, first compound 0.001 µM) of the same molecule?
Answer: 114%

Question: What about the viability, T/C (second compound 0.1 µM, first compound 0.00316 µM) of the same molecule?
Answer: 113%

Question: What about the viability, T/C (second compound 0.1 µM, first compound 0.01 µM) of the same molecule?
Answer: 97.2%

Question: What about the viability, T/C (second compound 0.1 µM, first compound 0.0316 µM) of the same molecule?
Answer: 90%

Question: What about the viability, T/C (second compound 0.1 µM, first compound 0.1 µM) of the same molecule?
Answer: 80.1%

Question: And the viability, T/C (second compound 0.316 µM, first compound 0.000316 µM)?
Answer: 99.3%

Question: And the viability, T/C (second compound 0.316 µM, first compound 0.001 µM)?
Answer: 96.3%

Question: What about the viability, T/C (second compound 0.316 µM, first compound 0.00316 µM) of the same molecule?
Answer: 85.8%

Question: What about the viability, T/C (second compound 0.316 µM, first compound 0.01 µM) of the same molecule?
Answer: 75.8%

Question: What about the viability, T/C (second compound 0.316 µM, first compound 0.0316 µM) of the same molecule?
Answer: 81.7%

Question: And the viability, T/C (second compound 0.316 µM, first compound 0.1 µM)?
Answer: 71.9%

Question: And the viability, T/C (second compound 1 µM, first compound 0.000316 µM)?
Answer: 24%

Question: What about the viability, T/C (second compound 1 µM, first compound 0.001 µM) of the same molecule?
Answer: 22.9%

Question: What about the viability, T/C (second compound 1 µM, first compound 0.00316 µM) of the same molecule?
Answer: 19%

Question: What about the viability, T/C (second compound 1 µM, first compound 0.01 µM) of the same molecule?
Answer: 22.3%

Question: What about the viability, T/C (second compound 1 µM, first compound 0.0316 µM) of the same molecule?
Answer: 22.3%

Question: What about the viability, T/C (second compound 1 µM, first compound 0.1 µM) of the same molecule?
Answer: 18.7%

Question: What about the viability, T/C (second compound 3.16 µM, first compound 0.000316 µM) of the same molecule?
Answer: 7.18%

Question: And the viability, T/C (second compound 3.16 µM, first compound 0.001 µM)?
Answer: 10.9%

Question: What about the viability, T/C (second compound 3.16 µM, first compound 0.00316 µM) of the same molecule?
Answer: 8.25%

Question: What about the viability, T/C (second compound 3.16 µM, first compound 0.01 µM) of the same molecule?
Answer: 7.82%

Question: What about the viability, T/C (second compound 3.16 µM, first compound 0.0316 µM) of the same molecule?
Answer: 7.43%

Question: What about the viability, T/C (second compound 3.16 µM, first compound 0.1 µM) of the same molecule?
Answer: 10.8%

Question: And the viability, T/C (second compound 10 µM, first compound 0.000316 µM)?
Answer: 1.01%

Question: What about the viability, T/C (second compound 10 µM, first compound 0.001 µM) of the same molecule?
Answer: 2.31%

Question: And the viability, T/C (second compound 10 µM, first compound 0.00316 µM)?
Answer: 1.8%

Question: What about the viability, T/C (second compound 10 µM, first compound 0.01 µM) of the same molecule?
Answer: 0.75%

Question: And the viability, T/C (second compound 10 µM, first compound 0.0316 µM)?
Answer: 3.12%

Question: What about the viability, T/C (second compound 10 µM, first compound 0.1 µM) of the same molecule?
Answer: 2.33%
